Assay results from US20060205642A1, “Oral methods of treatment using proANF peptides” (priority 2005, published 2006).
Entries after “also recorded” stand apart in the source; their conditions may differ.

How the values were obtained:
porcine aortas = experiment: Vasodilation of porcine aortic strips preconstricted with 0.3 micromolar phenylephrine
Description: 30 Kg pigs are sacrificed, and aortic strips are harvested. The strips are attached to F-60 transducer (Narco-BioSystems, Houston, Tex.) and attached to a physiography (Narco-BioSystems) while being submerged in a muscle tissue bath comprising a Krebs Ringer solution at 37° C., with 95% O2-5% CO2, bubbled through the bath. Percentage vasodilation is measured versus time after preconstriction with 0.3 micromolar phenylephrine. […] (Vesely et al., Biochem. Biophys. Res. Commun. 148:1540-1548, 1987).

[1] = Rat clearance model (diuresis and salt excretion); type: in vivo, Munich-Wistar rats; conditions: for FENa, fractional excretion of sodium / UNa, urinary sodium / UNaV, urinary sodium excretion rate / V, urine flow rate: means ± SE
Description: The same three peptides and ANF from Example I are tested using the rat clearance model. Six control rats and six experimental Munich-Wistar rats, each weighing 150-200 grams, are used for each peptide, with catheters being placed in both jugular veins and in the femoral artery. The ureters are cannulated for simultaneous urine collections with femoral artery blood collections.
After inserting the catheters, a stabilization of one hour is allowed. A 10 μg/kg bolus of each of the respective human sequences of the peptides is given via the jugular vein to six experimental rats followed by a sustaining infusion of 0.1 μg/kg/min for 60 minutes. Blood and urine samples are collected at 20 minute intervals during this 60 minute infusion. In both the control and experimental animals, hematocrits and plasma sodium values remained at the same levels pre- and post-infusion while blood pressure decreased with each of these peptides (see Attachment B).

[2] = tested on: particulate guanylate cyclase; experiment: Particulate guanylate cyclase activity in the kidney; type: biochemical; conditions: 1 μM; whole kidney homogenates, renal cortical and medullary membranes, isolated distal nephrons
Description: Testing is also carried out to determine biologic effects of these peptides by measuring their effects on particulate guanylate activity in the kidney.

[3] = Infusion into healthy human subjects; type: in vivo; conditions: healthy humans
Description: Infusion of these peptides into healthy human subjects was performed as follows: Human pro-ANF 1-30, pro-ANF 31-67, and pro-ANF 79-98, and hANF (i.e., pro-ANF 99-126, were synthesized by Peninsula Laboratories (Belmont, Calif.). High pressure liquid chromatography (HPLC) analysis was performed on a sample of each of the four peptides to ensure purity. The peptides were dissolved in a sterile 0.9% saline solution to a concentration of 100 μg/ml and dispensed in 2 and 5 ml aliquots into sealed sterile vials. At the time of dispensing, randomly selected vials were tested for pyrogens and sterility. Prior to labeling the vials, the actual peptide content of the dispensed solution were determined by direct radioimmunoassay to account for any possible absorption of the respective peptides to the walls of the vials. All vials were then stored at −80° C. until thawed for individual study.
Normal healthy subjects were chosen on the basis of age (between 20 and 50 years), physical examination and biochemical screenings. The subjects consumed their normal diets prior to testing. The subjects fasted overnight and were tested in the morning in the seated position. Intravenous catheters were placed bilaterally for the administration of pro-hANF 1-30, pro-hANF 31-67, pro-hANF 79-98 and hANF (pro-hANF 99-126) and for blood sampling. After completion of a 45-minute equilibration period, there were three […] phases of the study: baseline, experimental infusion (60 minutes) and recovery (3 hours). The baseline phase consisted of two 30 minute urine collection periods, the experimental phase consisted of three 20 minute urine and plasma collection periods, and the recovery phase consisted of two 30 minute urine and plasma collection periods each hour for three hours post-infusion. Urine output was replaced on a milliliter per milliliter basis throughout the study by administering oral water or orange juice. Urine samples were obtained by voiding at the designated collection periods.
The 36 subjects were divided into 6 groups. One group (i.e., the control group) received a placebo infusion of 0.9% sodium chloride during the experimental infusion phase. […] The four remaining groups of six subjects each received human pro-hANF 1-30, pro-hANF 31-67, pro-hANF 79-98 and HANF. The four groups received the peptides by continuous infusion at the rate of 0.1 μg/kg per minute. The volume administered per hour during the experimental infusion phase was 10 ml for all four peptides and the placebo. All infusions were given by a constant-rate infusion pump, with the final concentrations of prohANFs adjusted for the subjects' body weight. The subjects heart rate and cuff blood pressure were taken at 5 minute intervals throughout the study. The excreted urine was analyzed for sodium concentration.

[4] = Ischemic nonoliguric acute renal failure (ARF) in rats; type: in vivo, Sprague-Dawley rats
Description: Ischemic nonologuric acute renal failure (ARF) was induced in 24 male Sprague-Dawley rats (Zivc-Miller), weighing 200-270 g with 50 min of ischemia. Seven of the ARF rats received proANF 31-67. There were 17 ARF rats in the control group. Each of these rats were handled identically with the control rats as well as the experimental group of rats receiving an osmotic pump placement two days after receiving a unilateral right nephrectomy followed by clamping left renal artery for 50 min. The only difference was that the control group received 0.9% saline only in their osmotic pumps, whereas the experimental group had proANF 31-67 dissolved in 0.9% saline within their osmotic pumps which pump for 72 hours into the peritoneal cavity. In the 17 control ARF rats their preischemic blood urea nitrogen (BUN) and creatinine levels of 16±1 and 0.56±0.05 mg/dl increased to 162±4 and 8.17±0.5 mg/dl, P<0.001, respect 4 of postischemia. ProANF 31-67 (0.3 μg·kg^−1·min^−1 intraperitoneally), decreased the BUN and creatinine levels to 53±17 mg/dl and 0.98±0.12 mg/dl (P<0.001) in seven animals where ARF had been established for two days. […] Acute tubular necrosis was <5% in the proANF 31-67-treated rats compared with 25% to >75% in the placebo-treated ARF animals.

[5] = tested on: prostaglandin E2 (PGE2) synthesis; experiment: Prostaglandin E2 synthesis (FIG. 8); type: biochemical; conditions: n=6, ANOVA and Duncan's MRT
[6] = tested on: renal medullary Na+-K+-ATPase; experiment: Inhibition of renal medullary Na+-K+-ATPase activity (FIG. 9); type: biochemical; conditions: 10^-11 M, n=6, ANOVA
Description: FIG. 9. Inhibition of renal medullary Na+-K+-ATPase activity by proANF 79-98 (kaliuretic peptide), proANF 1-30 (long acting natriuretic peptide), proANF 31-67 (vessel dilator), and angiotensin II at their […] concentrations.

[7] = A, control period (before peptide)
[8] = B, first 60-minute experiment period, 10 μg/kg bolus then 0.1 μg/kg/min
[9] = C, second 60-minute experimental period

Substance: H-EVVPPQVLSEPNEEAGAALSPLPEVPPWTGEVSPAQR-OH [proANF 31-67]
- increase in cyclic GMP levels over baseline levels associated with vasodilation (porcine aortas): four-to-five fold
- FENa, fractional excretion of sodium [1, 7]: 0.057 ± 0.012%
- UNa, urinary sodium [1, 7]: 21.02 ± 4.41 meq/1
- UNaV, urinary sodium excretion rate [1, 7]: 144.08 ± 56.75 μeq · min^−1 · g kidney wt^−1
- V, urine flow rate [1, 7]: 2.63 ± 0.24 μl · min^−1 · g kidney wt^−1
- V, urine flow rate ([1]; B, first 60-minute experiment period, 10 μg/kg bolus then 0.1 μg/kg/min via jugular vein): 9.36 ± 3.14 μl · min^−1 · g kidney wt^−1
- FENa, fractional excretion of sodium [1, 8]: 0.457 ± 0.156%
- UNa, urinary sodium [1, 8]: 111.73 ± 21.37 meq/1
- UNaV, urinary sodium excretion rate [1, 8]: 1,057 ± 371.69 μeq · min^−1 · g kidney wt^−1
- V, urine flow rate ([1]; C, second 60-minute experimental period, 10 μg/kg bolus then 0.1 μg/kg/min): 8.84 ± 1.86 μl · min^−1 · g kidney wt^−1
- FENa, fractional excretion of sodium [1, 9]: 0.444 ± 0.155%
- UNa, urinary sodium [1, 9]: 129.33 ± 24.73 meq/1
- UNaV, urinary sodium excretion rate [1, 9]: 1,077.63 ± 306.10 μeq · min^−1 · g kidney wt^−1
- potassium excretion ([1]; rat clearance model): does not cause increased potassium excretion
- particulate guanylate cyclase activity [2]: enhance
- duration of sodium excreting effects compared to ANF [3]: significantly (P<0.001) prolonged compared to ANF; also recorded: last significantly (P<0.001) longer than ANF's effects
- increase in urine volume (in words) ([3]; 100 ng/kg body wt per minute for 1 hour i.v., n=6, ANOVA): significant
- sodium excretion (in words) ([3]; 100 ng/kg body wt per minute for 60 minutes, vs baseline): significantly (P<0.05) increased
- systolic and diastolic blood pressures ([3]; 100 ng/kg body wt per minute i.v. for 60 min, n=6): significant; also recorded: lowers blood pressure the most
- creatinine level ([4]; 0.3 μg·kg^−1·min^−1 intraperitoneally, seven animals, ARF established two days, control ARF rats 8.17±0.5 at day 4): 0.98 ± 0.12 mg/dL
- blood urea nitrogen (BUN) level ([4]; 0.3 μg·kg^−1·min^−1 intraperitoneally, seven animals, ARF established two days, control ARF rats 162±4 at day 4): 53 ± 17 mg/dL
- acute tubular necrosis ([4]; 25% to >75% in placebo-treated animals): < 5%
- mortality at day 6 of ARF ([4]; 88% without proANF 31-67): 14%
- left ventricular dilation (transthoracic echocardiography) ([4]; ARF rats): reversed this dilation
- water excretion ([4]; doubled with ARF): further augmented
- survival (Kaplan-Meir plot) ([4]; from day 4 (P<0.01) and day 5 onward (P<0.001) vs placebo-treated ARF rats): significant advantage with respect to survival
- prostaglandin E2 (PGE2) synthesis [5]: increase prostaglandin E2 (PGE2) synthesis
- inhibition of renal medullary Na+-K+-ATPase activity [6]: significant at P<0.01
